For test [1], the system named is T-Rex 293 cell line SC3 cells having increased expression of androgen receptor protein due to exposure to doxycycline. Kind of test: Cellular growth inhibition assay, T-Rex 293 SC3 cells with doxycycline (CellTiter-Glo, 72 hours). Format: cell-based. Particulars: T-Rex 293 SC3 cells with increased androgen receptor expression due to doxycycline (10 ng/mL). The method in brief:
(§1)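 Doxycycline (10 ng/mL) was either included or omitted to toggle wild-type androgen receptor expression in SC3 cells, a T-Rex 293 clone, grown in stripped-serum, phenol red-free medium. After 72 hours with compound, viable cells were quantified by CellTiter-Glo 2.0.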

The next test concerns VCaP cells. Kind of test: Cellular growth inhibition assay for VCaP cells (CellTiter-Glo, 72 hours). Format: cell-based, human. The method in brief: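 Luminescent viability signal after 72 h of compound exposure gave GI50 values by four-parameter nonlinear regression. Compounds were added in 0.5% DMSO to cells plated 24 h earlier at 5000/well in DMEM containing 10% FBS.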
(In ATP-based viability assays light output follows the ATP content of the culture.)

Test [2] has as its system T-Rex 293 cell line SC3 cells lacking increased expression of androgen receptor protein. Kind of test: Cellular growth inhibition assay, T-Rex 293 SC3 cells without doxycycline (CellTiter-Glo, 72 hours). The settings on record: T-Rex 293 cell line SC3 cells not exposed to doxycycline (lacking increased androgen receptor expression). Format: cell-based. The gist of the method: as §1

The next test deals with T47D cells. Kind of test: Cellular growth inhibition assay for T47D cells (CellTiter-Glo, 72 hours). Format: cell-based, human. The settings on record: 72 hours treatment. The gist of the method:
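Cells are plated at 3000/well and allowed 24 h before treatment. Test compound in medium containing 0.5% DMSO is then added, with DMSO-only wells as negative control, and plates are incubated 72 h at 37 °C. ATP luminescence (CellTiter-Glo 2.0) is then fitted to four parameters to derive GI50.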

Where two headings read alike, the source gives them in different places.

Experimental findings from US20260109707A1, “HETEROBIFUNCTIONAL COMPOUNDS AND METHODS OF TREATING DISEASE” (Halda Therapeutics OpCo. Inc., priority 2022, published 2026) are described below.

One may read the GI50 as the concentration giving 50% growth inhibition. Low readings indicate greater sensitivity of the cells, high ones lower sensitivity of the cells.

For the compound `Cc1sc2c(c1C)C(c1ccc(C[C@H]3CC[C@@]4(C3)CN(c3ccc(C(=O)N[C@H]5CC[C@H](Oc6ccc(C#N)c(Cl)c6)CC5)nn3)CCO4)cc1)=N[C@@H](Cc1ncco1)c1nnc(C)n1-2` [I-267], the GI50 in test [1] (72 h) is under 500 nM; in the test with VCaP cells (Homo sapiens, VCaP, 72 h), under 500 nM; in test [2] (72 h) it was under 500 nM; in the test on T47D cells (Homo sapiens, T47D, 72 h) it was under 500 nM.
Turning to `Cc1sc2c(c1C)C(c1ccc(C(=O)N3CC[C@]4(CCCN(c5ccc(C(=O)N[C@H]6CC[C@H](Oc7ccc(C#N)c(Cl)c7)CC6)nn5)C4)C3)cc1)=N[C@H](Cc1ncco1)c1nnc(C)n1-2` [I-272], the GI50 in test [1] (72 h) was under 500 nM; in the test with VCaP cells (Homo sapiens, VCaP, 72 h), 1500 to 3000 nM; in test [2] (72 h), over 3000 nM; with T47D cells (Homo sapiens, T47D, 72 h) it was 1500 to 3000 nM.
Regarding `Cc1sc2c(c1C)C(c1ccc(C(=O)N3CCC[C@@H](Cc4ccc(C(=O)N[C@H]5CC[C@H](Oc6ccc(C#N)c(Cl)c6)CC5)nn4)C3)cc1)=N[C@H](Cc1ncco1)c1nnc(C)n1-2` [I-275], the GI50 in test [1] (72 h) is under 500 nM; in the test with VCaP cells (Homo sapiens, VCaP, 72 h) it was over 3000 nM; in test [2] (72 h), over 3000 nM; in the test on T47D cells (Homo sapiens, T47D, 72 h), over 3000 nM.
As for `Cc1sc2c(c1C)C(c1ccc(CCC[C@@H]3CCCN(c4ccc(C(=O)N[C@H]5CC[C@H](Oc6ccc(C#N)c(Cl)c6)CC5)nn4)C3)cc1)=N[C@@H](Cc1ncco1)c1nnc(C)n1-2` [I-276], the GI50 in test [1] (72 h) was under 500 nM; with VCaP cells (Homo sapiens, VCaP, 72 h), under 500 nM; in test [2] (72 h), under 500 nM; in the test on T47D cells (Homo sapiens, T47D, 72 h), under 500 nM.
With `Cc1sc2c(c1C)C(c1ccc(CCC[C@H]3CCCN(c4ccc(C(=O)N[C@H]5CC[C@H](Oc6ccc(C#N)c(Cl)c6)CC5)nn4)C3)cc1)=N[C@@H](Cc1ncco1)c1nnc(C)n1-2` [I-277], the concentration for 50% growth inhibition (GI50) is under 500 nM in test [1] (72 h); under 500 nM with VCaP cells (Homo sapiens, VCaP, 72 h); under 500 nM in test [2] (72 h); under 500 nM in the test with T47D cells (Homo sapiens, T47D, 72 h).
In the case of `Cc1sc2c(c1C)C(c1ccc(CCO[C@@H]3CCCN(c4ccc(C(=O)N[C@H]5CC[C@H](Oc6ccc(C#N)c(Cl)c6)CC5)nn4)C3)cc1)=N[C@@H](Cc1ncco1)c1nnc(C)n1-2` [I-278], the concentration for 50% growth inhibition (GI50) was under 500 nM in test [1] (72 h); under 500 nM in the test with VCaP cells (Homo sapiens, VCaP, 72 h); over 3000 nM in test [2] (72 h); under 500 nM in the test with T47D cells (Homo sapiens, T47D, 72 h).
Consider `Cc1sc2c(c1C)C(c1ccc(CCO[C@H]3CCCN(c4ccc(C(=O)N[C@H]5CC[C@H](Oc6ccc(C#N)c(Cl)c6)CC5)nn4)C3)cc1)=N[C@@H](Cc1ncco1)c1nnc(C)n1-2` [I-279], for which the GI50 was under 500 nM in test [1] (72 h); under 500 nM in the test with VCaP cells (Homo sapiens, VCaP, 72 h); under 500 nM in test [2] (72 h); 500 to 1500 nM with T47D cells (Homo sapiens, T47D, 72 h).
As to `Cc1sc2c(c1C)C(c1ccc(C#CC3CC4(C3)CN(c3ccc(C(=O)N[C@H]5CC[C@H](Oc6ccc(C#N)c(Cl)c6)CC5)nn3)C4)cn1)=N[C@H](Cc1ncco1)c1nnc(C)n1-2` [I-281], the GI50 was under 500 nM in test [1] (72 h); under 500 nM in the test on VCaP cells (Homo sapiens, VCaP, 72 h); under 500 nM in test [2] (72 h); under 500 nM in the test on T47D cells (Homo sapiens, T47D, 72 h).
For `Cc1sc2c(c1C)C(c1ccc(O[C@@H]3CC[C@]4(CCCN(c5ccc(C(=O)N[C@H]6CC[C@H](Oc7ccc(C#N)c(Cl)c7)CC6)nn5)C4)C3)nc1)=N[C@@H](Cc1ncco1)c1nnc(C)n1-2` [I-284], the GI50 in test [1] (72 h) is under 500 nM; in the test on VCaP cells (Homo sapiens, VCaP, 72 h), under 500 nM; in test [2] it was under 500 nM; in the test on T47D cells (Homo sapiens, T47D, 72 h), 500 to 1500 nM.
Consider `Cc1sc2c(c1C)C(c1ccc(O[C@@H]3CC[C@@]4(CCCN(c5ccc(C(=O)N[C@H]6CC[C@H](Oc7ccc(C#N)c(Cl)c7)CC6)nn5)C4)C3)nc1)=N[C@@H](Cc1ncco1)c1nnc(C)n1-2` [I-285], for which the GI50 in test [1] (72 h) was under 500 nM; with VCaP cells (Homo sapiens, VCaP, 72 h), under 500 nM; in test [2] it was over 3000 nM; in the test on T47D cells it was 1500 to 3000 nM.
Consider `Cc1sc2c(c1C)C(c1ccc(O[C@@H]3CC[C@]4(CCCN(c5ccc(C(=O)N[C@H]6CC[C@H](Oc7ccc(C#N)c(Cl)c7)CC6)nn5)C4)C3)nc1)=N[C@@H](Cc1ncco1)c1nnc(C)n1-2` [I-286], for which the concentration for 50% growth inhibition (GI50) is under 500 nM in test [1], under 500 nM with VCaP cells, over 3000 nM in test [2] and 500 to 1500 nM in the test with T47D cells.
Consider `Cc1sc2c(c1C)C(c1ccc(O[C@@H]3CC[C@@]4(CCCN(c5ccc(C(=O)N[C@H]6CC[C@H](Oc7ccc(C#N)c(Cl)c7)CC6)nn5)C4)C3)nc1)=N[C@@H](Cc1ncco1)c1nnc(C)n1-2` [I-287], for which the 50% growth inhibitory concentration (GI50) in test [1] was under 500 nM; in the test with VCaP cells, under 500 nM; in test [2] it was under 500 nM; in the test with T47D cells, 500 to 1500 nM.
With `Cc1sc2c(c1C)C(c1ccc(C[C@@H]3CC[C@]4(C3)CN(c3ccc(C(=O)N[C@H]5CC[C@H](Oc6ccc(C#N)c(Cl)c6)CC5)nn3)CCO4)cc1)=NC(Cc1ncco1)c1nnc(C)n1-2` (some centres unmarked) [I-288], the GI50 in test [1] (72 h) was under 500 nM; in the test with VCaP cells (Homo sapiens, VCaP, 72 h) it was under 500 nM; in test [2] (72 h) it was under 500 nM; in the test on T47D cells (Homo sapiens, T47D, 72 h) it was under 500 nM.
As for `Cc1sc2c(c1C)C(c1ccc(CNC(=O)NCc3ccc(C(=O)N[C@H]4CC[C@H](Oc5ccc(C#N)c(Cl)c5)CC4)nn3)cc1)=N[C@@H](Cc1ncco1)c1nnc(C)n1-2` [I-289], the concentration for 50% growth inhibition (GI50) in test [1] (72 h) is under 500 nM; with VCaP cells (Homo sapiens, VCaP, 72 h) it was 1500 to 3000 nM; in test [2] (72 h) it was over 3000 nM; in the test with T47D cells (Homo sapiens, T47D, 72 h), 1500 to 3000 nM.
Turning to `Cc1sc2c(c1C)C(c1ccc(C(=O)N3CCN(Cc4ccc(C(=O)N[C@H]5CC[C@H](Oc6ccc(C#N)c(Cl)c6)CC5)nn4)CC3)cc1)=N[C@@H](Cc1ncco1)c1nnc(C)n1-2` [I-290], the GI50 was over 3000 nM in test [1] (72 h); over 3000 nM with VCaP cells (Homo sapiens, VCaP, 72 h); over 3000 nM in test [2] (72 h); over 3000 nM in the test on T47D cells (Homo sapiens, T47D, 72 h).
In the case of `Cc1sc2c(c1C)C(c1ccc(C(=O)N3CCN(Cc4ccc(C(=O)N[C@H]5CC[C@H](Oc6ccc(C#N)c(Cl)c6)CC5)nn4)CC3)cc1)=N[C@H](Cc1ncco1)c1nnc(C)n1-2` [I-291], the 50% growth inhibitory concentration (GI50) in test [1] (72 h) is under 500 nM; in the test with VCaP cells (Homo sapiens, VCaP, 72 h), over 3000 nM; in test [2] (72 h), over 3000 nM; in the test with T47D cells (Homo sapiens, T47D, 72 h) it was over 3000 nM.
As to `Cc1sc2c(c1C)C(c1ccc(N3CCC(C(=O)NCc4ccc(C(=O)N[C@H]5CC[C@H](Oc6ccc(C#N)c(Cl)c6)CC5)nn4)CC3)cc1)=N[C@@H](Cc1ncco1)c1nnc(C)n1-2` [I-292], the GI50 in test [1] (72 h) is under 500 nM; in the test with VCaP cells (Homo sapiens, VCaP, 72 h) it was under 500 nM; in test [2] (72 h), 500 to 1500 nM; in the test with T47D cells (Homo sapiens, T47D, 72 h) it was under 500 nM.
Consider `Cc1sc2c(c1C)C(c1ccc(CCNC(=O)NCc3ccc(C(=O)N[C@H]4CC[C@H](Oc5ccc(C#N)c(Cl)c5)CC4)nn3)cc1)=N[C@@H](Cc1ncco1)c1nnc(C)n1-2` [I-293], for which the concentration for 50% growth inhibition (GI50) in test [1] (72 h) is under 500 nM; in the test on VCaP cells (Homo sapiens, VCaP, 72 h), under 500 nM; in test [2] (72 h) it was over 3000 nM; in the test with T47D cells (Homo sapiens, T47D, 72 h), 500 to 1500 nM.
With `Cc1sc2c(c1C)C(c1ccc(N3CCC[C@H](C(=O)NCc4ccc(C(=O)N[C@H]5CC[C@H](Oc6ccc(C#N)c(Cl)c6)CC5)nn4)C3)cc1)=N[C@@H](Cc1ncco1)c1nnc(C)n1-2` [I-294], the GI50 in test [1] (72 h) is under 500 nM; in the test with VCaP cells (Homo sapiens, VCaP, 72 h) it was under 500 nM; in test [2] (72 h), over 3000 nM; in the test on T47D cells (Homo sapiens, T47D, 72 h) it was under 500 nM.
Consider `Cc1sc2c(c1C)C(c1ccc(N3CCC[C@H](C(=O)NCc4ccc(C(=O)N[C@H]5CC[C@H](Oc6ccc(C#N)c(Cl)c6)CC5)nn4)C3)cc1)=N[C@H](Cc1ncco1)c1nnc(C)n1-2` [I-295], for which the GI50 is 500 to 1500 nM in test [1] (72 h); over 3000 nM with VCaP cells (Homo sapiens, VCaP, 72 h); over 3000 nM in test [2] (72 h); 1500 to 3000 nM with T47D cells (Homo sapiens, T47D, 72 h).
